Our source for the IC50 values is US8410126B2, “Pyrimidine inhibitors of PKTK2” (Boehringer Ingelheim International GmbH, priority 2009, dated 2013).

pIC50: −log10 of the molar value.

The target in the assay is T1, PTK2 (Homo sapiens, UniProt Q05397).
T1 construct: purchased Invitrogen PV3832
T1 sequence (Q05397 whole entry): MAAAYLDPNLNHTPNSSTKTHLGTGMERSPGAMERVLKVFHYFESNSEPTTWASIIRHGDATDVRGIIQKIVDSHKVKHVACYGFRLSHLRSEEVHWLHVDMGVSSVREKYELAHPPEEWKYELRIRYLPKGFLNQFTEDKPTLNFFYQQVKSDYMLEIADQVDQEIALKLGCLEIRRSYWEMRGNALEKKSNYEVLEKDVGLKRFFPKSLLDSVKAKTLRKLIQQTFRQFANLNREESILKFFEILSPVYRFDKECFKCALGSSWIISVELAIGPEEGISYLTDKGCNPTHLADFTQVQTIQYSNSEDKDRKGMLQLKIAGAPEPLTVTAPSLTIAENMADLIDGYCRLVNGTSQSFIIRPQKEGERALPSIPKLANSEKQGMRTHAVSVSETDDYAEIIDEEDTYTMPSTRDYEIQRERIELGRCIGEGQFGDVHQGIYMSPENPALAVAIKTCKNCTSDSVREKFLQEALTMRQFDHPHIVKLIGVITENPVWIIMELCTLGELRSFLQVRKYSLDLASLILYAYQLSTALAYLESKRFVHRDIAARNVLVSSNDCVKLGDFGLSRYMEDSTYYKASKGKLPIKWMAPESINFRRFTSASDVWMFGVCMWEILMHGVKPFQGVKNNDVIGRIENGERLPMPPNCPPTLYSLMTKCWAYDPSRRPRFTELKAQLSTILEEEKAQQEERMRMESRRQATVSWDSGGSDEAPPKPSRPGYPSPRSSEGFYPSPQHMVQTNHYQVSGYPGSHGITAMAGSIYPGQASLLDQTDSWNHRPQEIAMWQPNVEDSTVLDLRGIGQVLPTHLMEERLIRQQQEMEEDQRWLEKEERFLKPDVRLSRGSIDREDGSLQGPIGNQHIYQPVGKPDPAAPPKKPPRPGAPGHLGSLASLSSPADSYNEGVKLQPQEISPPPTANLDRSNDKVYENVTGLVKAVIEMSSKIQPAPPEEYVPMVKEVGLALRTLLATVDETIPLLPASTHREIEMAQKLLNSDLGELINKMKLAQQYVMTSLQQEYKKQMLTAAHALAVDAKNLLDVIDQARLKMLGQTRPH
The experiment in a line: PTK2 enzyme test Assay 1 (DELFIA, poly-Glu-Tyr substrate, PT60 antibody). The following applies: Assay 1 (values without *); 1 h pre-incubation, 50 μM ATP mix, final DMSO 2%. It is filed as biochemical. As to the method:
This test uses active PTK2 enzyme (Invitrogen Code PV3832) and poly-Glu-Tyr (4:1, Sigma P-0275) as the kinase substrate. The kinase activity is detected through the phosphorylation of the substrate in a DELFIA™ assay. The phosphorylated substrate is detected with the europium-labelled phosphotyrosine antibody PT60 (Perkin Elmer, No.: AD00400).
In order to determine concentration-activity curves with PTK2-inhibitors the compounds are serially diluted in 10% DMSO/H2O and 10 μL of each dilution are placed in each well of a 96-well microtitre plate (clear plate with a U-shaped base, Greiner No. 650101) (the inhibitors are tested in duplicates) and mixed with 10 μL/well of PTK2 kinase (0.01 μg/well). PTK2 kinase has been correspondingly diluted beforehand with kinase dilution buffer (20 mM TRIS/HCl pH 7.5, 0.1 mM EDTA, 0.1 mM EGTA, 0.286 mM sodium orthovanadate, 10% glycerol with the addition of freshly prepared BSA (fraction V, 1 mg/mL) and DTT (1 mM)). The test compound and the PTK2 kinase are pre-incubated for 1 h at RT and shaken at 500 revolutions per min. The reaction is started by the addition of 10 μL/well poly (Glu,Tyr) substrate (25 μg/well poly (Glu, Tyr), 0.05 μg/well biotinylated poly (Glu,Tyr) dissolved in 250 mM TRIS/HCl pH 7.5, 9 mM DTT)—the final concentration of DMSO is 2%. Then 20 μL of ATP Mix (30 mM TRIS/HCl pH 7.5, 0.02% Brij, 0.2 mM sodium orthovanadate, 10 mM magnesium acetate, 0.1 mM EGTA, 1× phosphatase inhibitor cocktail 1 (Sigma, No.: P2850), 50 μM ATP (Sigma, No.: A3377; 15 mM stock solution)) are added. After 1 h of kinase reaction (the plates are shaken at 500 rpm), the reaction is stopped by the addition of 12 μL/well 100 mM EDTA, pH 8.0 and shaken for a further 5 min at RT (500 rpm). 55 μL of the reaction mixture are transferred into a streptavidin plate (Strepta Well High Bind (transparent, 96-well) made by Roche, No.: 11989685001) and incubated for 1 h at RT (shaking at 500 rpm). Then the microtitre plate is washed three times with 200 μL/well D-PBS (Invitrogen, No. 14190). 100 μL of a solution containing DELFIA Eu-N1 Anti-Phosphotyrosine PT60 antibody (Perkin Elmer, No.: AD0040, diluted 1:2000 in DELFIA test buffer (Perkin Elmer, No.: 1244-111)) is then added and the mixture is incubated for 1 h at RT (shaking at 500 rpm). Then the plate is washed three times with 200 μL/well DELFIA washing buffer (Perkin Elmer, No.: 1244-114), 200 μL/well strengthening solution (Perkin Elmer, No.: 1244-105) are added and the mixture is incubated for 10 min at RT (shaking at 300 rpm).
The time-delayed europium fluorescence is then measured in a microtitre plate reader (VICTOR^3, Perkin Elmer). […] Wells that contain test buffer instead of enzyme are used as a control of the background kinase activity.
The IC50 values are determined from analyses of the concentration activity by iterative calculation with the aid of a sigmoid curve analysis algorithm (FIFTY, based on GraphPAD Prism Version 3.03) with a variable Hill coefficient.
Turning to `COc1cc(CN2CCOCC2)ccc1Nc1ncc(C(F)(F)F)c(N[C@@H]2Cc3ccccc3[C@H]2NC(C)=O)n1` [Example I-38], the pIC50 was 8.70.

`COc1cc(C(=O)NC2CCCN(C)C2)ccc1Nc1ncc(C(F)(F)F)c(N[C@@H]2Cc3ccccc3[C@H]2NC(C)=O)n1` (stereo partly shown) [Example I-14] had a pIC50 of 8.70.

In turn, `COc1cc(N2CCN(C)CC2)ccc1Nc1ncc(C(F)(F)F)c(N[C@@H]2Cc3ccccc3[C@H]2N(C)S(C)(=O)=O)n1` [Example I-39, N-((1R,2R)-2-{2-[2-methoxy-4-(4-methyl-piperazin-1-yl)-phenylamino]-5-trifluoromethyl-pyrimidin-4-ylamino}-indan-1-yl)-N-methyl-methanesulphonamide] showed a pIC50 of 8.52.

In turn, `COc1cc(C(=O)NC2CCOCC2)ccc1Nc1ncc(C(F)(F)F)c(N[C@@H]2Cc3ccccc3[C@H]2NC(C)=O)n1` [Example I-15] had a pIC50 of 8.40.

Regarding `COc1cc(N2CCNCC2)ccc1Nc1ncc(C(F)(F)F)c(N[C@@H]2Cc3ccccc3[C@H]2N(C)S(C)(=O)=O)n1` [Example I-70, N-{(1R,2R)-2-[2-(2-methoxy-4-piperazin-1-yl-phenylamino)-5-trifluoromethyl-pyrimidin-4-ylamino]-indan-1-yl}-N-methyl-methanesulphonamide], the negative-log IC50 (pIC50) was 9.01.

Compound `COc1cc(C(=O)NOCCN(C)C)ccc1Nc1ncc(C(F)(F)F)c(N[C@@H]2Cc3ccccc3[C@H]2N(C)S(C)(=O)=O)n1` [Example I-59] gave a pIC50 of 9.08.

As to `COc1cc(N2CCN(CC3CC3)CC2)ccc1Nc1ncc(C(F)(F)F)c(N[C@@H]2Cc3ccccc3[C@H]2N(C)S(C)(=O)=O)n1` [Example I-56], the pIC50 was 8.52.

Regarding `COc1cc(C(=O)NC2CCN(C)CC2)ccc1Nc1ncc(C(F)(F)F)c(N[C@@H]2Cc3ccccc3[C@H]2NC(C)=O)n1` [Example I-1], the pIC50 is 8.70. The pIC50 values of the last two compounds are within 0.2 log units of each other.

`COc1cc(C(=O)NCCN(C)C)c(Cl)cc1Nc1ncc(C(F)(F)F)c(N[C@@H]2Cc3ccccc3[C@H]2N(C)S(C)(=O)=O)n1` [Example I-58] had a pIC50 of 8.40.

For `COCCN1CCC(NC(=O)c2ccc(Nc3ncc(C(F)(F)F)c(N[C@@H]4Cc5ccccc5[C@H]4N(C)S(C)(=O)=O)n3)c(OC)c2)CC1` [Example I-65], the pIC50 is 9.00.

Take `COc1cc(C(=O)NC2CCN(C)CC2)ccc1Nc1ncc(C(F)(F)F)c(N[C@@H]2Cc3ccccc3[C@H]2N(C)S(C)(=O)=O)n1` [Example I-5, 4-{4-[(1R,2R)-1-(methanesulphonyl-methyl-amino)-indan-2-ylamino]-5-trifluoromethyl-pyrimidin-2-ylamino}-3-methoxy-N-(1-methyl-piperidin-4-yl)-benzamide]: the pIC50 is 8.70. Compared with the last compound, the pIC50 is 0.30 log units lower.

In turn, `COc1cc(NC(C)=O)ccc1Nc1ncc(C(F)(F)F)c(N[C@@H]2Cc3ccccc3[C@H]2N(C)S(C)(=O)=O)n1` [Example I-90] showed a pIC50 of 8.52.

In the case of `COc1cc(Nc2ncc(C(F)(F)F)c(N[C@@H]3Cc4ccccc4[C@H]3N(C)S(C)(=O)=O)n2)ccc1NC(C)=O` [Example I-92], the pIC50 is 8.70.

Turning to `COc1cc(C(=O)NC2CCC(N3CCN(CC4CC4)CC3)CC2)c(F)cc1Nc1ncc(C(F)(F)F)c(N[C@@H]2Cc3ccccc3[C@H]2N(C)S(C)(=O)=O)n1` (stereo partly shown) [Example I-51], the pIC50 was 8.40.

Consider `COc1cc(C(=O)NC2CCOCC2)c(F)cc1Nc1ncc(C(F)(F)F)c(N[C@@H]2Cc3ccccc3[C@H]2N(C)S(C)(=O)=O)n1` [Example I-50], for which the pIC50 was 8.10. Compared with the last compound, the pIC50 is 0.30 log units lower.

Compound `COc1cc(C(=O)NC2CCN(C)CC2)c(F)cc1Nc1ncc(C(F)(F)F)c(N[C@@H]2Cc3ccccc3[C@H]2N(C)S(C)(=O)=O)n1` [Example I-46, 2-fluoro-4-{4-[(1R,2R)-1-(methanesulphonyl-methyl-amino)-indan-2-ylamino]-5-trifluoromethyl-pyrimidin-2-ylamino}-5-methoxy-N-(1-methyl-piperidin-4-yl)-benzamide] gave a pIC50 of 8.70.

Compound `COc1cc(C(=O)NCCN(C)C)c(C)cc1Nc1ncc(Cl)c(N[C@@H]2Cc3ccccc3[C@H]2N(C)S(C)(=O)=O)n1` [Example I-97] gave a pIC50 of 8.70.

In turn, `CNC(=O)c1ccc(Nc2ncc(C(F)(F)F)c(N[C@@H]3c4ccccc4C[C@H]3NS(C)(=O)=O)n2)c(OC)c1` [Example I-95] gave a pIC50 of 8.22.

`COc1cc(C(=O)NC2CCCN(C)C2)ccc1Nc1ncc(C(F)(F)F)c(N[C@@H]2Cc3ccccc3[C@H]2N(C)S(C)(=O)=O)n1` (stereo partly shown) [Example I-6] gave a pIC50 of 9.02.

`CNCc1ccc(Nc2ncc(C(F)(F)F)c(N[C@@H]3Cc4ccccc4[C@H]3N(C)S(C)(=O)=O)n2)c(OC)c1` [Example I-71, N-{(1R,2R)-2-[2-(2-methoxy-4-methylaminomethyl-phenylamino)-5-trifluoromethyl-pyrimidin-4-ylamino]-indan-1-yl}-N-methyl-methanesulphonamide] gave a pIC50 of 9.00.

Compound `COc1cc(C(=O)NC2CCN(C)CC2)c(Cl)cc1Nc1ncc(C(F)(F)F)c(N[C@@H]2Cc3ccccc3[C@H]2N(C)S(C)(=O)=O)n1` [Example I-60, 2-chloro-4-{4-[(1R,2R)-1-(methanesulphonyl-methyl-amino)-indan-2-ylamino]-5-trifluoromethyl-pyrimidin-2-ylamino}-5-methoxy-N-(1-methyl-piperidin-4-yl)-benzamide] gave a pIC50 of 9.00.

Compound `COc1cc(C(=O)NC2CCN(C)CC2)c(C)cc1Nc1ncc(Cl)c(N[C@@H]2Cc3ccccc3[C@H]2N(C)S(C)(=O)=O)n1` [Example I-68] gave a pIC50 of 9.00.

On to `COc1cc(C(=O)NC2CCN(C)CC2)c(C)cc1Nc1ncc(C(F)(F)F)c(N[C@@H]2Cc3ccccc3[C@H]2N(C)S(C)(=O)=O)n1` [Example I-53], for which the pIC50 is 9.00.

Take `COCCNC(=O)c1ccc(Nc2ncc(C(F)(F)F)c(N[C@@H]3Cc4ccccc4[C@H]3NC(C)=O)n2)c(OC)c1` [Example I-16]: the pIC50 was 8.70.

Compound `COc1cc(C(=O)NCCN(C)C)c(F)cc1Nc1ncc(C(F)(F)F)c(N[C@@H]2Cc3ccccc3[C@H]2N(C)S(C)(=O)=O)n1` [Example I-48] showed a pIC50 of 9.00.

Consider `COc1cc(C(=O)NC2CCN(C)CC2)ccc1Nc1ncc(Br)c(N[C@@H]2Cc3ccccc3[C@H]2N(C)S(C)(=O)=O)n1` [Example I-98, 4-{5-bromo-4-[(1R,2R)-1-(methanesulphonyl-methyl-amino)-indan-2-ylamino]-pyrimidin-2-ylamino}-3-methoxy-N-(1-methyl-piperidin-4-yl)-benzamide], for which the pIC50 is 9.00.

As to `COc1cc(C(=O)NC2CCCN(C)C2)c(F)cc1Nc1ncc(C(F)(F)F)c(N[C@@H]2Cc3ccccc3[C@H]2N(C)S(C)(=O)=O)n1` (stereo partly shown) [Example I-47], the pIC50 was 8.52.

`COc1cc(C(=O)NCCN(C)C)ccc1Nc1ncc(C(F)(F)F)c(N[C@@H]2Cc3ccccc3[C@H]2NC(C)=O)n1` [Example I-20] showed a pIC50 of 9.00.

In the case of `CCN1CCC(NC(=O)c2ccc(Nc3ncc(C(F)(F)F)c(N[C@@H]4Cc5ccccc5[C@H]4NC(C)=O)n3)c(OC)c2)CC1` [Example I-11], the pIC50 is 8.70.

As to `CNC(=O)c1ccc(Nc2ncc(Cl)c(N[C@@H]3Cc4ccccc4[C@H]3N(C)S(C)(=O)=O)n2)c(OC)c1` [Example I-34], the pIC50 is 8.15.

The compound `COc1cc(C(=O)NCCN(C)C)ccc1Nc1ncc(C(F)(F)F)c(N[C@@H]2Cc3ccccc3[C@H]2N(C)S(C)(=O)=O)n1` [Example I-52] showed a pIC50 of 9.00.

Compound `CNCc1ccc(Nc2ncc(C(F)(F)F)c(N[C@@H]3Cc4ccccc4[C@H]3NS(C)(=O)=O)n2)c(OC)c1` [Example I-9] had a pIC50 of 8.70.

In turn, `COc1cc(N2CCN(C)CC2)ccc1Nc1ncc(C(F)(F)F)c(N[C@@H]2Cc3ccccc3[C@H]2NC(C)=O)n1` [Example I-26] gave a pIC50 of 8.70.

In turn, `COc1cc(C(=O)NC2CCC(N3CCN(CC4CC4)CC3)CC2)ccc1Nc1ncc(C(F)(F)F)c(N[C@@H]2Cc3ccccc3[C@H]2N(C)S(C)(=O)=O)n1` (stereo partly shown) [Example I-7] had a pIC50 of 9.00.

What is called pIC50 is −log10 of the IC50, conventionally taken in molar units. Low readings indicate a high IC50, high ones a low IC50.
